Experimental data as given in US8129417B2, “Substituted octahydrocyclopenta[C]pyrrol-4-amines as calcium channel blockers” (Abbott Laboratories, priority 2008, dated 2012).

Target: human Cav2.2 (Homo sapiens, UniProt Q00975)
Assay: Assessment of calcium channel activity using FLIPR (Ca2+ influx in IMR32 cells)
Format: cell-based
Conditions: 60 minute pre-incubation with compound, 2 μM nifedipine, depolarized with 80 mM KCl
Method in brief: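 IMR32 neuroblastoma cells seeded at 1-1.2×10^5 cells/well and grown 48 h at 37 °C before FLIPR Ca2+ influx read. Percent inhibition at each concentration vs no-inhibitor activity; IC50 by non-linear sigmoidal dose-response fit.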

Chain of human Cav2.2 (Q00975 whole entry): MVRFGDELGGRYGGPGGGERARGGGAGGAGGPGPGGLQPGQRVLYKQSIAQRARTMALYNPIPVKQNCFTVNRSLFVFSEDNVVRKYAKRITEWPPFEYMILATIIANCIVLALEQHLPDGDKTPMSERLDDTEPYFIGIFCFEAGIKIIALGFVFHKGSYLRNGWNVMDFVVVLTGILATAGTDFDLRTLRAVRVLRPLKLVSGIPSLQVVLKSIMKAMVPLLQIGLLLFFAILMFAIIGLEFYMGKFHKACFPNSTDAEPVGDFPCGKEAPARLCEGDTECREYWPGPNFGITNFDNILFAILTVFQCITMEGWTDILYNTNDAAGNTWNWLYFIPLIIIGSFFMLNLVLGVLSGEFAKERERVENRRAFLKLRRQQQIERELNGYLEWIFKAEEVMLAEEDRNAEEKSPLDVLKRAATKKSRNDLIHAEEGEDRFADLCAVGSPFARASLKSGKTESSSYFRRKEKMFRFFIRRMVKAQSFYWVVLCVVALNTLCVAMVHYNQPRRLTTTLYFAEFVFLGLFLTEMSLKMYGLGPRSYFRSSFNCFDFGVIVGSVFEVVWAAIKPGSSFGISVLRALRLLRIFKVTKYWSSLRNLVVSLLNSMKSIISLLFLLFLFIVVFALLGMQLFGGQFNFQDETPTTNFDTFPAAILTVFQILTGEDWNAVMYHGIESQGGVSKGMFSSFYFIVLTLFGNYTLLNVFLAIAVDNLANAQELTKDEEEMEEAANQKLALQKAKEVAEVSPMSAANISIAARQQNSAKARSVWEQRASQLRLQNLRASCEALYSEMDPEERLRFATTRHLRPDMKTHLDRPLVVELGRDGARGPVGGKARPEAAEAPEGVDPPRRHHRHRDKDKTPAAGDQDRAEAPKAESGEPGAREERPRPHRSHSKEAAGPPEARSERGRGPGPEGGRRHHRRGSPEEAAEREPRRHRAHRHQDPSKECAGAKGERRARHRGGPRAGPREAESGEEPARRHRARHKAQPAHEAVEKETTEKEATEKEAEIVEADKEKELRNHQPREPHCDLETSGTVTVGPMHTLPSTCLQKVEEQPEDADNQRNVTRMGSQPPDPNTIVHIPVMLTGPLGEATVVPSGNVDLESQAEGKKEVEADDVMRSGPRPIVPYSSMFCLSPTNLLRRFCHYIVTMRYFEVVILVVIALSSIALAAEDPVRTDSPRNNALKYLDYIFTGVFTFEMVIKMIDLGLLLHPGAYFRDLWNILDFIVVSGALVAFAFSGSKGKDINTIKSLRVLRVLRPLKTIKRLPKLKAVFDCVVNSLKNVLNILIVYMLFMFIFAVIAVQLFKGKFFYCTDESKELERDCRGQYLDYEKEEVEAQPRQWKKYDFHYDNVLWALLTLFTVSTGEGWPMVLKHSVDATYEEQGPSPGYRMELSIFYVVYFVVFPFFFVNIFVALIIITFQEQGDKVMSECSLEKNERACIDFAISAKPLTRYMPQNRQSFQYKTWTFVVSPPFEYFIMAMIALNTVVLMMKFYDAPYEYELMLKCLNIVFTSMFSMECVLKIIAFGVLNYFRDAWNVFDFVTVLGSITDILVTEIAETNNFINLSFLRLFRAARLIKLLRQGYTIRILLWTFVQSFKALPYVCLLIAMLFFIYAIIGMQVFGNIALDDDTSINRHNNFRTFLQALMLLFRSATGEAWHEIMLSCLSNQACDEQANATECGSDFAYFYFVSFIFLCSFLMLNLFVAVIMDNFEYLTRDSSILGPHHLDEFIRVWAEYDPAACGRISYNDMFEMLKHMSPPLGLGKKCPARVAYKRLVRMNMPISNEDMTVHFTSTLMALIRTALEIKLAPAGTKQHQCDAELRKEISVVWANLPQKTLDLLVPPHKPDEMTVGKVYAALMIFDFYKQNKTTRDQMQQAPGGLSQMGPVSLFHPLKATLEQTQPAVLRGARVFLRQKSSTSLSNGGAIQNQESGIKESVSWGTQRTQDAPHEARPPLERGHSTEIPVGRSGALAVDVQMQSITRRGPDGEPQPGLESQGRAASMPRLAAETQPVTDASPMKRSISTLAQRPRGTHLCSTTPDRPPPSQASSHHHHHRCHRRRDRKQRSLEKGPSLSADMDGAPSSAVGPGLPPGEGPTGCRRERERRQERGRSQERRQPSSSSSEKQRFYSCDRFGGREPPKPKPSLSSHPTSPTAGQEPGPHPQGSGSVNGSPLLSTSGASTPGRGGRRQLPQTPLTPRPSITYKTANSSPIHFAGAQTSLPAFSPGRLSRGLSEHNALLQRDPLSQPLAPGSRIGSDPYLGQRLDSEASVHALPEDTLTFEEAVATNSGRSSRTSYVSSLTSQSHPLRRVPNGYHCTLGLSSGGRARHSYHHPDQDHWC
Chain of human Cav2.2 (P54289 25-946 partner limits assumed): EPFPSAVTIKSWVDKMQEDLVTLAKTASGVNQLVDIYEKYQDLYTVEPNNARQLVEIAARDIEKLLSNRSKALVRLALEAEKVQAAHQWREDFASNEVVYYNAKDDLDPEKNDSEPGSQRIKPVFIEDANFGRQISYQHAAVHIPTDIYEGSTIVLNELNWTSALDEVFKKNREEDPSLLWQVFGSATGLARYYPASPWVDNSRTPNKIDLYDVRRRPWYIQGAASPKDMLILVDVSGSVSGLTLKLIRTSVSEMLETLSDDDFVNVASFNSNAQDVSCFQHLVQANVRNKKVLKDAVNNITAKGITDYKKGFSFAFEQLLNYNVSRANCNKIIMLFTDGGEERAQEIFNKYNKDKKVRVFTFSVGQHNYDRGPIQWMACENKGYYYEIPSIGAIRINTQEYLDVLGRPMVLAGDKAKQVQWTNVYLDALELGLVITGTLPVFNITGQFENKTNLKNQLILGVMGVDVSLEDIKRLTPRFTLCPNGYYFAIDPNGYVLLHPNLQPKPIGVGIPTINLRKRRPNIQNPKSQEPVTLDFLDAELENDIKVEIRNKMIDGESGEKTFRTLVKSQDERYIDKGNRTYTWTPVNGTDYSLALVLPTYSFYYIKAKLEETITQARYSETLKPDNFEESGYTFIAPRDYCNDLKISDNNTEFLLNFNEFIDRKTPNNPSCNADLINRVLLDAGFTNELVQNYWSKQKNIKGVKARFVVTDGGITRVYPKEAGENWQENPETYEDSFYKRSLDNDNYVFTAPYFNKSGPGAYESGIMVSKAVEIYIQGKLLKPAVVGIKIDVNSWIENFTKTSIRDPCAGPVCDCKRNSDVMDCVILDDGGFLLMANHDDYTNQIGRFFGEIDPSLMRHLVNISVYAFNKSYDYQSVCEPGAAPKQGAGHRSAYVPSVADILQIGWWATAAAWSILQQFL
Chain of human Cav2.2 (P54289 947-1103 partner limits assumed): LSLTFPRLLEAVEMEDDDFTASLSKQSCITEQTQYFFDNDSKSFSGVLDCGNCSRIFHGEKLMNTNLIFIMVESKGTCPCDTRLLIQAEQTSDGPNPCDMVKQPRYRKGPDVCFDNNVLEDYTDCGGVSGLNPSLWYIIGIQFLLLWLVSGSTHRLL
Chain of human Cav2.2 (P54284 whole entry partner): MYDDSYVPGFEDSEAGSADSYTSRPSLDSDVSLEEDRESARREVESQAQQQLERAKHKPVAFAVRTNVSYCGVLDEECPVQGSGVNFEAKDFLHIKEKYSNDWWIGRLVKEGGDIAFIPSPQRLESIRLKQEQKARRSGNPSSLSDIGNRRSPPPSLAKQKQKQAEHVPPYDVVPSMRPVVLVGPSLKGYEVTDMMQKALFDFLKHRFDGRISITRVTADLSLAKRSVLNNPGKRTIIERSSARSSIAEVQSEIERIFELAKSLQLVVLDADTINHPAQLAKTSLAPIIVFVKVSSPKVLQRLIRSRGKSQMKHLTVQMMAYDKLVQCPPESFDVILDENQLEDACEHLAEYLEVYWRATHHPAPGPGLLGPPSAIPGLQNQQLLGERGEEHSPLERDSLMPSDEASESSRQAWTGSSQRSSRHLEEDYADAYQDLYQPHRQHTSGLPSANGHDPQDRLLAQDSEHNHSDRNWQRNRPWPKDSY

| SMILES | IC50 |
| --- | --- |
| CN[C@@H](CC(C)C)C(=O)N[C@@H]1CC[C@@H]2CN(Cc3ccccc3)C[C@@H]21 [Example 364, N^1-[(3aR,4R,6aS)-2-benzyloctahydrocyclopenta[c]pyrrol-4-yl]-N^2-methyl-L-leucinamide] | 8.12 µM |
| CCN[C@@H](CC(C)C)C(=O)N[C@H]1CC[C@@H]2CN(Cc3cccc(C(F)(F)F)c3)C[C@@H]21 [Example 366, N^2-ethyl-N^1-{(3aR,4S,6aS)-2-[3-(trifluoromethyl)benzyl]octahydrocyclopenta[c]pyrrol-4-yl}-L-leucinamide] | 5.28 µM |
| CN[C@H](C(=O)N[C@@H]1CC[C@H]2CN(Cc3ccc(C(F)(F)F)cc3)C[C@H]21)C(C)C [Example 367, N^2-methyl-N^1-{(3aS,4R,6aR)-2-[4-(trifluoromethyl)benzyl]octahydrocyclopenta[c]pyrrol-4-yl}-L-valinamide] | 7 µM |
| O=C(N[C@@H]1CC[C@H]2CN(Cc3ccc(C(F)(F)F)cc3)C[C@H]21)[C@@H]1CCCCN1 [Example 370, (2S)—N-{(3aS,4R,6aR)-2-[4-(trifluoromethyl)benzyl]octahydrocyclopenta[c]pyrrol-4-yl}piperidine-2-carboxamide] | 6.02 µM |
| CN[C@H](C(=O)N[C@@H]1CC[C@H]2CN(Cc3cccc(C(F)(F)F)c3)C[C@H]21)C(C)C [Example 373, N^2-methyl-N^1-{(3aS,4R,6aR)-2-[3-(trifluoromethyl)benzyl]octahydrocyclopenta[c]pyrrol-4-yl}-L-valinamide] | 7.58 µM |
| CN[C@@H](CC(C)C)C(=O)N[C@@H]1CC[C@H]2CN(Cc3ccc(C(F)(F)F)c(F)c3)C[C@H]21 [Example 374, N^1-{(3aS,4R,6aR)-2-[3-fluoro-4-(trifluoromethyl)benzyl]octahydrocyclopenta[c]pyrrol-4-yl}-N^2-methyl-L-leucinamide] | 5.36 µM |
| CN[C@@H](CC(C)C)C(=O)N[C@@H]1CC[C@H]2CN(Cc3ccc(F)c(C(F)(F)F)c3)C[C@H]21 [Example 375, N^1-{(3aS,4R,6aR)-2-[4-fluoro-3-(trifluoromethyl)benzyl]octahydrocyclopenta[c]pyrrol-4-yl}-N^2-methyl-L-leucinamide] | 8.22 µM |
| CCN[C@@H](CC(C)C)C(=O)N[C@H]1CC[C@@H]2CN(S(=O)(=O)c3cccc(C(F)(F)F)c3)C[C@@H]21 [Example 383, N^2-ethyl-N^1-((3aR,4S,6aS)-2-{[3-(trifluoromethyl)phenyl]sulfonyl}octahydrocyclopenta[c]pyrrol-4-yl)-L-leucinamide] | 0.8 µM |
| CN[C@@H](CC(C)C)C(=O)N[C@H]1CC[C@@H]2CN(S(=O)(=O)c3cccc(C(F)(F)F)c3)C[C@@H]21 [Example 384, N^2-methyl-N^1-((3aR,4S,6aS)-2-{[3-(trifluoromethyl)phenyl]sulfonyl}octahydrocyclopenta[c]pyrrol-4-yl)-L-leucinamide] | 1.14 µM |
| N[C@@H](Cc1ccccc1)C(=O)N[C@H]1CC[C@@H]2CN(S(=O)(=O)c3cccc(C(F)(F)F)c3)C[C@@H]21 [Example 385, N-((3aR,4S,6aS)-2-{[3-(trifluoromethyl)phenyl]sulfonyl}octahydrocyclopenta[c]pyrrol-4-yl)-L-phenylalaninamide] | 1.85 µM |
| CC(C)[C@H](N)CC(=O)N[C@H]1CC[C@@H]2CN(S(=O)(=O)c3cccc(C(F)(F)F)c3)C[C@@H]21 [Example 388, (3R)-3-amino-4-methyl-N-((3aR,4S,6aS)-2-{[3-(trifluoromethyl)phenyl]sulfonyl}octahydrocyclopenta[c]pyrrol-4-yl)pentanamide] | 4.53 µM |
| O=C(N[C@H]1CC[C@@H]2CN(S(=O)(=O)c3cccc(C(F)(F)F)c3)C[C@@H]21)[C@@H]1CCCCN1 [Example 390, (2S)—N-((3aR,4S,6aS)-2-{[3-(trifluoromethyl)phenyl]sulfonyl}octahydrocyclopenta[c]pyrrol-4-yl)piperidine-2-carboxamide] | 2.46 µM |
| CCCC[C@H](NC)C(=O)N[C@H]1CC[C@@H]2CN(S(=O)(=O)c3cccc(C(F)(F)F)c3)C[C@@H]21 [Example 393, N^2-methyl-N^1-((3aR,4S,6aS)-2-{[3-(trifluoromethyl)phenyl]sulfonyl}octahydrocyclopenta[c]pyrrol-4-yl)-L-norleucinamide] | 1.08 µM |
| CCC[C@H](NC)C(=O)N[C@H]1CC[C@@H]2CN(S(=O)(=O)c3cccc(C(F)(F)F)c3)C[C@@H]21 [Example 394, N^2-methyl-N^1-((3aR,4S,6aS)-2-{[3-(trifluoromethyl)phenyl]sulfonyl}octahydrocyclopenta[c]pyrrol-4-yl)-L-norvalinamide] | 0.98 µM |
| CN[C@@H](CC(C)C)C(=O)N[C@H]1CC[C@@H]2CN(S(=O)(=O)c3ccc(C(F)(F)F)cc3)C[C@@H]21 [Example 395, N^2-methyl-N^1-((3aR,4S,6aS)-2-{[4-(trifluoromethyl)phenyl]sulfonyl}octahydrocyclopenta[c]pyrrol-4-yl)-L-leucinamide] | 2.12 µM |
| O=C(N[C@@H]1CC[C@H]2CN(S(=O)(=O)c3cccc(C(F)(F)F)c3)C[C@H]21)[C@@H]1CCCN1 [Example 396, N-((3aS,4R,6aR)-2-{[3-(trifluoromethyl)phenyl]sulfonyl}octahydrocyclopenta[c]pyrrol-4-yl)-L-prolinamide] | 3.55 µM |
| O=C(N[C@@H]1CC[C@H]2CN(S(=O)(=O)c3cccc(C(F)(F)F)c3)C[C@H]21)[C@@H]1CCCCN1 [Example 398, (2S)—N-((3aS,4R,6aR)-2-{[3-(trifluoromethyl)phenyl]sulfonyl}octahydrocyclopenta[c]pyrrol-4-yl)piperidine-2-carboxamide] | 3.25 µM |
| CN[C@H](C(=O)N[C@@H]1CC[C@H]2CN(S(=O)(=O)c3ccc(F)cc3)C[C@H]21)C(C)C [Example 400, N^1-{(3aS,4R,6aR)-2-[(4-fluorophenyl)sulfonyl]octahydrocyclopenta[c]pyrrol-4-yl}-N^2-methyl-L-valinamide] | 6.86 µM |
| CN[C@H](C(=O)N[C@@H]1CC[C@H]2CN(S(=O)(=O)c3ccc(C(F)(F)F)cc3)C[C@H]21)C(C)C [Example 402, N^2-methyl-N^1-((3aS,4R,6aR)-2-{[4-(trifluoromethyl)phenyl]sulfonyl}octahydrocyclopenta[c]pyrrol-4-yl)-L-valinamide] | 2.06 µM |
| CCC[C@H](NC)C(=O)N[C@@H]1CC[C@H]2CN(S(=O)(=O)c3ccc(C(F)(F)F)cc3)C[C@H]21 [Example 404, N^2-methyl-N^1-((3aS,4R,6aR)-2-{[4-(trifluoromethyl)phenyl]sulfonyl}octahydrocyclopenta[c]pyrrol-4-yl)-L-norvalinamide] | 1.02 µM |
| CN[C@H](C(=O)N[C@@H]1CC[C@H]2CN(S(=O)(=O)c3cccc(C(F)(F)F)c3)C[C@H]21)C(C)C [Example 406, N^2-methyl-N^1-((3aS,4R,6aR)-2-{[3-(trifluoromethyl)phenyl]sulfonyl}octahydrocyclopenta[c]pyrrol-4-yl)-L-valinamide] | 3.69 µM |
| CN[C@@H](CC(C)C)C(=O)N[C@@H]1CC[C@H]2CN(S(=O)(=O)c3ccc(F)c(C(F)(F)F)c3)C[C@H]21 [Example 407, N^1-((3aS,4R,6aR)-2-{[4-fluoro-3-(trifluoromethyl)phenyl]sulfonyl}octahydrocyclopenta[c]pyrrol-4-yl)-N^2-methyl-L-leucinamide] | 5.43 µM |
| CC(C)(C)[C@H](N)C(=O)N[C@H]1CC[C@@H]2CN(S(=O)(=O)c3ccc(C(F)(F)F)cc3)C[C@@H]21 [Example 408, 3-methyl-N^1-((3aR,4S,6aS)-2-{[4-(trifluoromethyl)phenyl]sulfonyl}octahydrocyclopenta[c]pyrrol-4-yl)-L-valinamide] | 5.11 µM |
| CC(C)(C)[C@H](N)C(=O)N[C@@H]1CC[C@H]2CN(S(=O)(=O)c3ccc(C(F)(F)F)cc3)C[C@H]21 [Example 409, 3-methyl-N^1-((3aS,4R,6aR)-2-{[4-(trifluoromethyl)phenyl]sulfonyl}octahydrocyclopenta[c]pyrrol-4-yl)-L-valinamide] | 5.02 µM |
| CC[C@H](C)[C@H](NC)C(=O)N[C@H]1CC[C@@H]2CN(S(=O)(=O)c3cccc(C(F)(F)F)c3)C[C@@H]21 [Example 410, N^2-methyl-N^1-((3aR,4S,6aS)-2-{[3-(trifluoromethyl)phenyl]sulfonyl}octahydrocyclopenta[c]pyrrol-4-yl)-L-isoleucinamide] | 1.8 µM |
| CC[C@H](C)[C@H](NC)C(=O)N[C@H]1CC[C@@H]2CN(S(=O)(=O)c3ccc(C(F)(F)F)cc3)C[C@@H]21 [Example 411, N^2-methyl-N^1-((3aR,4S,6aS)-2-{[4-(trifluoromethyl)phenyl]sulfonyl}octahydrocyclopenta[c]pyrrol-4-yl)-L-isoleucinamide] | 4.22 µM |
| CN[C@@H](CC(C)(C)C)C(=O)N[C@H]1CC[C@@H]2CN(S(=O)(=O)c3cccc(C(F)(F)F)c3)C[C@@H]21 [Example 414, N^2,4-dimethyl-N^1-((3aR,4S,6aS)-2-{[3-(trifluoromethyl)phenyl]sulfonyl}octahydrocyclopenta[c]pyrrol-4-yl)-L-leucinamide] | 0.9 µM |
| CN[C@@H](CC(C)(C)C)C(=O)N[C@@H]1CC[C@H]2CN(S(=O)(=O)c3cccc(C(F)(F)F)c3)C[C@H]21 [Example 416, N^2,4-dimethyl-N^1-((3aS,4R,6aR)-2-{[3-(trifluoromethyl)phenyl]sulfonyl}octahydrocyclopenta[c]pyrrol-4-yl)-L-leucinamide] | 1.33 µM |
| CN[C@@H](CC(C)(C)C)C(=O)N[C@@H]1CC[C@H]2CN(S(=O)(=O)c3ccc(C(F)(F)F)cc3)C[C@H]21 [Example 417, N^2,4-dimethyl-N^1-((3aS,4R,6aR)-2-{[4-(trifluoromethyl)phenyl]sulfonyl}octahydrocyclopenta[c]pyrrol-4-yl)-L-leucinamide] | 1.16 µM |
| CCCC[C@H](NC)C(=O)N[C@H]1CC[C@@H]2CN(S(=O)(=O)c3ccc(C(F)(F)F)cc3)C[C@@H]21 [Example 418, N^2-methyl-N^1-((3aR,4S,6aS)-2-{[4-(trifluoromethyl)phenyl]sulfonyl}octahydrocyclopenta[c]pyrrol-4-yl)-L-norleucinamide] | 0.82 µM |
